Laboratory results taken from paper PMC10258794, “To Fold or Not to Fold: Diastereomeric Optimization of an α-Helical Antimicrobial Peptide” (Journal of Medicinal Chemistry, 2023).
Values after ≈ are worked out from the molar mass of the structure shown. Like-named read-outs stand apart in the source and are kept apart here. Positions of bridges follow the written chain, without caps; N, C: chain ends. Non-standard residues stand in square brackets, D forms with d. Residues, ends and D or L forms follow the SMILES beside them. *: point of attachment. Heptanoyl(6-Me) = CC(C)CCCCC(=O)*; dDab = NCC[C@@H](N)C(=O)O; Dab = NCC[C@H](N)C(=O)O

What was measured:
[1] = test system: S. aureus COL MRSA; settings: for MIC S. aureus COL MRSA: MH broth pH 7.4, 16–20 h, 37 °C; for MIC S. aureus COL: supplementary CSV, ranges of Table 1 given as one number
Description: (§1) Antimicrobial activity was determined for all peptides on E. coli W3110, P. aeruginosa PAO1, A. baumannii ATCC19606, K. pneumoniae NCTC418, and methicillin-resistant S. aureus COL and for selected peptides on P. aeruginosa PA14 and the polymyxin B-resistant derivatives PA14 4.13, PA14 4.18, and PA14 2P4 as well as the clinical isolates ZEM-1A and ZEM9A, K. pneumoniae OXA-48, Enterobacter cloacae, Stenotrophomonas maltophilia, B. cenocepacia, and Staphylococus epidermis. To determine the MIC, the broth microdilution method was used.[75] A single bacterial colony was grown in LB medium overnight at 37 °C and 180 rpm shaking. The compounds were prepared as stock solutions of 2 mg/mL in sterilized milliQ deionized water, added to the first well of 96-well sterile, polypropylene round-bottom microtiter plates (TPP, untreated, Corning Incorporated, Kennebunk, USA), and diluted serially by 1/2. […] The bacterial inoculum was prepared by measuring the absorbance of the overnight culture, which was diluted to concentration of the bacteria was quantified by measuring absorbance at 600 nm and diluted to an OD600 of 0.022 in MH medium pH 7.4 (Sigma-Aldrich, Buchs, Switzerland). The sample solutions (150 μL) were mixed with 4 μL of diluted bacterial suspension with a final inoculation of about 5 × 10^5 CFU. For each test, two columns of the plate were kept for sterility control (MH medium only) and growth control (MH medium with bacterial inoculum, no compound). […] The plates were incubated at 37 °C for 16–20 h under static conditions. 15 μL of 3-(4,5-dimethylthiazol-2-yl)-2,5-diphenyltetrazolium bromide (MTT)[76] (1 mg/mL in sterilized milliQ deionized water) was added to each well, and the plates were incubated at room temperature until MTT staining was completed. The MIC was defined as the lowest concentration of the dendrimer that inhibits the visible growth of the tested bacteria (yellow) with the unaided eye.

[2] = test system: E. coli W3110; settings: MH broth pH 7.4, 16–20 h, 37 °C
Description: as §1

[3] = test system: K. pneumoniae NCTC418
Description: as §1

[4] = test system: P. aeruginosa PAO1
Description: as §1

[5] = test system: A. baumannii ATCC19606
Description: as §1

[6] = EYPC vesicle leakage assay; format: biochemical; settings: 10 μg/mL of compound; 10 mM TRIS, 107 mM NaCl, pH 7.4
Description: 5(6)-carboxyfluorescein (CF) was purchased from Sigma. EYPC, EYPG, and a Mini-Extruder were purchased from Avanti Polar Lipids. Egg PC or Egg PG thin lipid layers were prepared by evaporating a solution of 100 mg of EYPC or EYPG in 4 mL of MeOH/CHCl3 (1:1) on a rotary evaporator at room temperature and then dried in vacuo overnight. […] Extravesicular components were removed by gel filtration (Sephadex G-50) with 10 mM TRIS, 107 mM NaCl, pH 7.4 buffer. Final conditions: ∼2.5 mM PC or PG; inside: 50 mM CF, 10 mM TRIS, 10 mM NaCl, pH 7.4 buffer; outside: 10 mM TRIS, 107 mM NaCl, pH 7.4. […] The CF efflux was monitored at λem 517 nm (λex 492 nm) as a function of time after addition of the desired volume of peptide from 2 mg/mL stock in mQ water at t = 45 s, 10 and 50 μg/mL were monitored for both EYPC and EYPG. […] Fluorescence intensities were then normalized to the maximal emission intensity using I(t) = (It – I0)/(I∞ – I0) where I0 = It at peptide addition, I∞ = It at saturation of lysis.

[7] = test system: Staphylococcus epidermis; assay: MIC broth microdilution, Staphylococcus epidermis; format: cell-based; settings: pH 7.4
Description: as §1

[8] = test system: P. aeruginosa ZEM9A; assay: microbe, parasite or virus in culture; format: cell-based, Pseudomonas aeruginosa
Description: as §1

[9] = test system: K. pneumoniae Oxa-48; assay: MIC broth microdilution, K. pneumoniae Oxa-48; format: cell-based, Klebsiella pneumoniae
Description: as §1

[10] = test system: Stenotrophomonas maltophilia; assay: microbe, parasite or virus in culture; format: cell-based
Description: as §1

[11] = test system: P. aeruginosa ZEM-1A; assay: microbe, parasite or virus in culture
Description: as §1

[12] = test system: P. aeruginosa PA14; assay: microbe, parasite or virus in culture
Description: as §1

[13] = test system: PA14 4.18 (pmrB); assay: microbe, parasite or virus in culture
Description: as §1

[14] = test system: PA14 4.13 (phoQ); assay: microbe, parasite or virus in culture
Description: as §1

[15] = test system: PA14 2P4 (pmrB); assay: microbe, parasite or virus in culture
Description: as §1

[16] = test system: Enterobacter cloacae; assay: microbe, parasite or virus in culture
Description: as §1

[17] = test system: Burkolderia cenocepacia; assay: microbe, parasite or virus in culture
Description: as §1

[18] = test system: S. aureus Newman
[19] = MH broth pH 7.4, 16–20 h, 37 °C
[20] = supplementary CSV, ranges of Table 1 given as one number
[21] = MDR strain, MH broth pH 7.4, 16–20 h, 37 °C

Structure (SMILES) | MIC S. aureus COL MRSA [1] [µg/mL] | MIC S. aureus COL [1] [µg/mL] | MIC E. coli W3110 [2] [µg/mL] | MIC K. pneumoniae NCTC418 [3, 19] [µg/mL] | MIC P. aeruginosa PAO1 [4, 19] [µg/mL] | MIC P. aeruginosa PAO1 [4, 20] [µg/mL] | MIC A. baumannii ATCC19606 [5, 19] [µg/mL] | MIC A. baumannii ATCC19606 [5, 20] [µg/mL] | EYPC vesicle leakage (%) [6] [%] | further results
CC(C)C[C@H](NC(=O)[C@H](CC(C)C)NC(=O)[C@@H](CCCCN)NC(=O)[C@H](CC(C)C)NC(=O)[C@H](CC(C)C)NC(=O)[C@@H](CCCCN)NC(=O)[C@H](N)CCCCN)C(=O)N[C@@H](CCCCN)C(=O)N[C@@H](CC(C)C)C(=O)N[C@H](CC(C)C)C(=O)N[C@H](CC(C)C)C(N)=O [HP26, kkLLkLLKLll] | 32 (≈ 24.2 µM) | 32 (≈ 24.2 µM) | 4 (≈ 3.03 µM) | >64 | 4 (≈ 3.03 µM) | 4 (≈ 3.03 µM) | 16 (≈ 12.1 µM) | 16 (≈ 12.1 µM) | 6 | –
CC(C)C[C@H](NC(=O)[C@H](CC(C)C)NC(=O)[C@H](CC(C)C)NC(=O)[C@H](CCCCN)NC(=O)[C@H](CC(C)C)NC(=O)[C@H](CC(C)C)NC(=O)[C@H](CCCCN)NC(=O)[C@H](CC(C)C)NC(=O)[C@H](CC(C)C)NC(=O)[C@@H](CCCCN)NC(=O)[C@H](N)CCCCN)C(N)=O [HP2] | 4 (≈ 3.03 µM) | 4 (≈ 3.03 µM) | 4 (≈ 3.03 µM) | 2 to 4 | 4 (≈ 3.03 µM) | 4 (≈ 3.03 µM) | 4 (≈ 3.03 µM) | 4 (≈ 3.03 µM) | – | MIC Staphylococcus epidermis [7]: 2 µg/mL (≈ 1.51 µM); MIC ZEM9A ([8]; pH 7.4): 4 µg/mL (≈ 3.03 µM); MIC K. pneumoniae Oxa-48 [9, 21]: 2 µg/mL (≈ 1.51 µM); MIC Stenotrophomonas maltophilia ([10]; pH 7.4): 2 µg/mL (≈ 1.51 µM); MIC ZEM-1A ([11]; pH 7.4): 2 µg/mL (≈ 1.51 µM); MIC PA14 [12, 19]: 2 µg/mL (≈ 1.51 µM); MIC P. aeruginosa PA14 ([12]; supplementary CSV): 2 µg/mL (≈ 1.51 µM); MIC P. aeruginosa PA14 4.18 ([13]; supplementary CSV): 32 µg/mL (≈ 24.2 µM); MIC P. aeruginosa PA14 4.13 ([14]; supplementary CSV): 4 µg/mL (≈ 3.03 µM); MIC P. aeruginosaPA14 2P4 ([15]; supplementary CSV): 64 µg/mL (≈ 48.4 µM); MIC Enterobacter cloacae ([16]; pH 7.4): 2 µg/mL (≈ 1.51 µM); MIC Burkolderia cenocepacia [17, 21]: >64 µg/mL; MIC K. pneumoniae NCTC418 [3, 20]: 3 µg/mL (≈ 2.27 µM); MIC S. aureus Newman [18, 19]: 2 µg/mL (≈ 1.51 µM); MIC S. aureus Newmann ([18]; supplementary CSV): 2 µg/mL (≈ 1.51 µM)
CC(C)C[C@H](NC(=O)[C@H](CC(C)C)NC(=O)[C@@H](CC(C)C)NC(=O)[C@H](CCCCN)NC(=O)[C@@H](CC(C)C)NC(=O)[C@H](CC(C)C)NC(=O)[C@@H](CCCCN)NC(=O)[C@H](CC(C)C)NC(=O)[C@@H](CC(C)C)NC(=O)[C@H](CCCCN)NC(=O)[C@@H](N)CCCCN)C(N)=O [HP15, KKlLkLlKlLL] | >64 | – | 8 (≈ 6.05 µM) | >64 | 16 (≈ 12.1 µM) | 16 (≈ 12.1 µM) | 32 to 64 | 48 (≈ 36.3 µM) | 3 | –
CC(C)CCCCC(=O)N[C@@H](CCN)C(=O)N[C@H](C(=O)N[C@@H](CCN)C(=O)N[C@H]1CCNC(=O)[C@H]([C@@H](C)O)NC(=O)[C@H](CCN)NC(=O)[C@H](CCN)NC(=O)[C@H](CC(C)C)NC(=O)[C@@H](Cc2ccccc2)NC(=O)[C@@H](CCN)NC1=O)[C@@H](C)O [Pol B, polymyxin B, reference compound] ({Heptanoyl(6-Me)}-[Dab]T[Dab][Dab][dDab][dF]L[Dab][Dab]T; lactam 4-C) | – | – | – | – | – | – | – | – | – | MIC ([8]; Pseudomonas aeruginosa, ZEM9A, MDR strain, MH broth pH 7.4, 16–20 h, 37 °C): 2 µg/mL (≈ 1.68 µM); MIC ([9]; Klebsiella pneumoniae, OXA48, pH 7.4, read-out: MIC K. pneumoniae Oxa-48): 2 µg/mL (≈ 1.68 µM); MIC ([10]; Stenotrophomonas maltophilia, MDR strain, MH broth pH 7.4, 16–20 h, 37 °C): 0.5 µg/mL (≈ 0.42 µM); MIC ([11]; Pseudomonas aeruginosa, ZEM1A, pH 7.4, read-out: MIC ZEM-1A): < 0.125 µg/mL; MIC ([12]; Pseudomonas aeruginosa, PA14, pH 7.4, read-out: MIC PA14): < 0.125 µg/mL; MIC ([13]; Pseudomonas aeruginosa, PA14, pH 7.4, read-out: MIC PA14 4.18 (pmrB)): 1 µg/mL (≈ 0.841 µM); MIC ([14]; Pseudomonas aeruginosa, PA14, pH 7.4, read-out: MIC PA14 4.13 (phoQ)): 0.25 µg/mL (≈ 0.21 µM); MIC ([15]; Pseudomonas aeruginosa, PA14, pH 7.4, read-out: MIC PA14 2P4 (pmrB)): 1 µg/mL (≈ 0.841 µM); MIC ([16]; Enterobacter cloacae, pH 7.4, read-out: MIC Enterobacter cloacae): 1 µg/mL (≈ 0.841 µM); MIC ([17]; Burkholderia cenocepacia, pH 7.4, read-out: MIC Burkolderia cenocepacia): > 16 µg/mL
